“Also recorded” adds a separate entry of the source.

Assay [1] has as its system C2C12-α10β1 cells. The assay is described as follows: LDH-based SPBA of C2C12-α10β1 cell adhesion. The arrangement: species or system mouse. To be noted: short THPs, 2 mM Mg^2 +, 1 h, Fig. 4B. The procedure: The mouse myoblast cell line, C2C12-α10β1 clone, expresses α10β1 as its sole collagen-binding integrin [16]. To investigate the binding of α10β1 to collagen in a cellular and whole integrin context, therefore, the adhesion of C2C12-α10β1 cells to Toolkits II and III was performed using two different approaches. First, SPBA was used, with lactate dehydrogenase to report the presence of adherent cells, after lysis, as described in Experimental. […] C2C12-α10B1 cells generally bound more prominently to those weaker peptides that supported just-observable binding of free I-domain. This may reflect avidity of the receptor-populated cell surface for the peptide-coated wells, or perhaps up-regulation of integrin affinity following receptor engagement. It is also possible that some cell binding reflects specific indirect interactions. For example, fibronectin, available either by intrinsic expression or from the serum supplement, binds well to II-44, and can also bind integrin αVβ3 [21].
Fig. 2 Binding of α10β1-transfected C2C12 cells to Collagen Toolkits. 96-well plates were coated with peptides as for Fig. 1, then C2C12-α10β1 cells (5 × 10^4 per well) were added and incubated for 1 h in the presence of either 2 mM MgCl2 or 2 mM EDTA as above. A: binding to Toolkit II. B: binding to Toolkit III.
(§1) The mouse myoblast cell line, C2C12, (control and transfectants, C2C12-α1β1, C2C12-α2β1, C2C12-α10β1 or C2C12-α11β1) was maintained in RPMI medium containing 10% fetal bovine serum, 2 mM glutamine, 100 IU/ml penicillin, 100 μg/ml streptomycin, and 2.5 μg/ml amphotericin. Cells were harvested by centrifugation, washed, and suspended at 0.5 × 10^6/ml in Tris-buffered saline supplemented with 5.5 mM glucose and either 2 mM EDTA or 2 mM MgCl2. SPBA was performed as follows: 100 μl of the cell suspension was added to peptide-coated wells [42] at 20 °C for 60 min. Cell adhesion was determined colorimetrically after lysis, using a lactate dehydrogenase (LDH)-based cell detection kit (Roche Diagnostics) according to the supplier's instructions.

A further assay concerns α10β1. The assay is described as follows: Overall recognition by α10β1 (I domain and C2C12-α10β1 cells, summary). To be noted: abstract and discussion; I domain and/or C2C12-α10β1 cells. The method, then:
I domain adhesion was determined colorimetrically, as described, here termed solid phase binding assay (SPBA). Peptides were coated at 10 μg/ml for 1 h at 22 °C on Immulon-2 HB 96-well plates (Thermo Life Sciences, Basingstoke, UK), and blocked for 1 h with 200 μl of TBS containing 50 mg/ml bovine serum albumin. Wells were washed four times with 200 μl of the adhesion buffer (TBS with 1 mg/ml bovine serum albumin) before adding 100 μl of adhesion buffer containing 10 μg/ml of recombinant GST I domains in the presence of either 2 mM MgCl2 or EDTA for 1 h at room temperature. Wells were washed five times with 200 μl of adhesion buffer containing MgCl2 or EDTA, before adding 100 μl of adhesion buffer containing the anti-GST-HRP conjugate at 1:10,000 dilution for 1 h at room temperature. After washing, colour was developed using an ImmunoPure TMB Substrate Kit (Pierce) according to the manufacturer's instructions.
as §1
(§2) To quantitate C2C12-α10β1 binding to collagen peptides, we used the impedance-based xCELLigence system (Acea) that allows label-free, dynamic monitoring of cell adhesion in real-time. The assay system expresses the adhesion-dependent rise in well impedance in units of cell index (CI), defined as (Rn − Rb) / 15; where Rn is the electrical impedance of each cell-containing well and Rb is the background impedance of the well with medium alone

For a further assay, the system named is α2β1. The arrangement: method as in 4 sources, ref [8], [10] = [8]; PMID 16326707; doi:10.1074/jbc.M509818200; 8 Raynal N. Hamaia S.W. Siljander P.R. Maddox B. Peachey A.R. Fernandez R. Foley L.J. Slatter D.A. Jarvis G.E. Farndale R.W. Use of synthetic peptides to locate novel integrin alpha2beta1-binding moti || [10]; PMID 16043429; doi:10.1074/jbc.M502431200; 10 Kim J.K. Xu Y. Xu X. Keene D.R. Gurusiddappa S. Liang X. Wary K.K. Hook M. A novel binding site in collagen type III for the integrins, alpha 1beta 1 and alpha 2beta 1 J. Biol. Chem. 280 2005 32512 ||| ref not given ||| ref [4] = [4]; PMID 19693543; doi:10.1007/s00441-009-0834-6; 4 Barczyk M. Carracedo S. Gullberg D. Integrins Cell Tissue Res. 339 1 2010 269 280 19693543 10.1007/s00441-009-0834-6 PMC2784866 ||| ref [12] = [12]; PMID 22654115; doi:10.1074/jbc.M112.353144; 12 Hamaia S.W. Pugh N. Raynal N. Nemoz B. Stone R. Gullberg D. Bihan D. Farndale R.W. Mapping of potent and specific binding motifs, GLOGEN and GVOGEA, for integrin alpha1beta1 using collagen toolkits. Conditions: cited from earlier work.

For a further assay, the system named is integrin α1β1. Also on record: method as in 3 sources, ref [4]; PMID 19693543; doi:10.1007/s00441-009-0834-6; 4 Barczyk M. Carracedo S. Gullberg D. Integrins Cell Tissue Res. 339 1 2010 269 280 19693543 10.1007/s00441-009-0834-6 PMC2784866 ||| ref [12] = [12]; PMID 22654115; doi:10.1074/jbc.M112.353144; 12 Hamaia S.W. Pugh N. Raynal N. Nemoz B. Stone R. Gullberg D. Bihan D. Farndale R.W. Mapping of potent and specific binding motifs, GLOGEN and GVOGEA, for integrin alpha1beta1 using collagen toolkits ||| ref not given. To be noted: ref [12]; cited from earlier work. From the text: The collagen-binding integrin family is complete, with four established members, α1β1, α2β1, α10β1 and α11β1. These are highly-conserved, heterodimeric receptors with an important structural feature in common, the presence of an I (inserted) domain which contains the metal ion-dependent adhesion site (MIDAS). The MIDAS is a constellation of electronegative residues at the distal surface of this 200-residue domain that, in the resting, non-ligated state, can co-ordinate a Mg^2 + ion. […] Many related motifs have now been identified using the Collagen Toolkits developed in this laboratory for the purpose. These are libraries of overlapping peptides of 27 amino acids of collagen primary sequence (guest sequence), flanked ... || Why would collagen II differ in this respect?

For assay [2], the system named is C2C12-α10β1 cells. The assay is described as follows: xCELLigence real-time adhesion of C2C12-α10β1 cells. Type of assay: cell-based, mouse. Conditions: 2.5 × 10^4 cells/well, 2 mM Mg^2 +, over 1 h, Fig. 3A. The method, then: Fig. 3 Binding of α10β1-transfected C2C12 cells to collagens and selected Toolkit peptides. Peptides or collagens were coated on ePlates as described, then cells were added in the presence of 2 mM Mg^2 + or EDTA, and Cell Index value was collected over 1 h. […] B: time courses are shown of adhesion to selected Toolkit peptides or GPP-10.
as §2
Briefly, C2C12 cells were seeded at 2.5 × 10^4 cells/well in an E-plate (Roche Applied Science) pre-coated with peptides as for SPBA, and CI was measured for up to 2 h.

On to “GLOGEA [short triple-helical peptide; motif in collagens IV, XI, XXVII]”, for which the “Adhesion of C2C12-α10β1 cells to short triple-helical peptides” value (from here on “Adhesion of C2C12-α10β1 cells”) in the assay with C2C12-α10β1 cells [1] is listed as “bound strongly”.
On to “GAOGER [integrin motif in collagens II, III, IV, VI, VII, IX]”, for which the “Recognition by α10β1, summary” value in the assay on α10β1 is “weak ligand”.
Take “GRSGET [short THP containing GRSGET, motif unique to collagen II]”: the “Recognition by α10β1, summary” value in the assay on α10β1 is listed as “not recognised by α10β1; also recorded: α10-repellent”.
For GVOGEA [integrin motif in collagen II], the “Affinity for α2β1” value in the assay with α2β1 (ref [12]) is “little affinity for α2β1”. For the same molecule, the “Recognition by α10β1, summary” value in the assay on α10β1 is recorded as “moderately good ligand for α10β1”. The “Affinity for integrin α1β1” value in the assay on integrin α1β1 is given as “moderate ligand”.
Consider “GLKGEN [short triple-helical peptide containing GLKGEN]”, for which the “Adhesion of C2C12-α10β1 cells” value in the assay with C2C12-α10β1 cells [1] is listed as “less well”.
As to “GKOGER [motif occurring only in collagen X and in the α2 chain of collagen I]”, in the assay with α10β1, the “Recognition by α10β1, summary” value is “compromised in the context of α10β1; also recorded: α10-repellent”.
For “GFOGEK [short triple-helical peptide; motif in collagens IV, VI, X]”, the “Recognition by α10β1, summary” value with α10β1 is on record as “now shown to bind α10β1”. Moreover, the “Adhesion of C2C12-α10β1 cells” value with C2C12-α10β1 cells [1] was “less well”.
In the case of “GMOGER [short triple-helical peptide containing GMOGER]”, in the assay on C2C12-α10β1 cells [1], the “Adhesion of C2C12-α10β1 cells” value is recorded as “less well”.
In the case of collagen I: intact collagen I, in the assay on C2C12-α10β1 cells [2], the “Cell adhesion to collagens (Cell Index, endpoint)” value is listed as “bound quite well”. The “Preferred ligand of α2β1” value in the assay with α2β1 (ref [4]) was “preferred ligand”.

B1: collagen III: intact collagen III (protein)
chain: QQEAVEGGCSHLGQSYADRDVWKPEPCQICVCDSGSVLCDDIICDDQELDCPNPEIPFGECCAVCPQPPTAPTRPPNGQGPQGPKGDPGPPGIPGRNGDPGIPGQPGSPGSPGPPGICESCPTGPQNYSPQYDSYDVKSGVAVGGLAGYPGPAGPPGPPGPPGTSGHPGSPGSPGYQGPPGEPGQAGPSGPPGPPGAIGPSGPAGKDGESGRPGRPGERGLPGPPGIKGPAGIPGFPGMKGHRGFDGRNGEKGETGAPGLKGENGLPGENGAPGPMGPRGAPGERGRPGLPGAAGARGNDGARGSDGQPGPPGPPGTAGFPGSPGAKGEVGPAGSPGSNGAPGQRGEPGPQGHAGAQGPPGPPGINGSPGGKGEMGPAGIPGAPGLMGARGPPGPAGANGAPGLRGGAGEPGKNGAKGEPGPRGERGEAGIPGVPGAKGEDGKDGSPGEPGANGLPGAAGERGAPGFRGPAGPNGIPGEKGPAGERGAPGPAGPRGAAGEPGRDGVPGGPGMRGMPGSPGGPGSDGKPGPPGSQGESGRPGPPGPSGPRGQPGVMGFPGPKGNDGAPGKNGERGGPGGPGPQGPPGKNGETGPQGPPGPTGPGGDKGDTGPPGPQGLQGLPGTGGPPGENGKPGEPGPKGDAGAPGAPGGKGDAGAPGERGPPGLAGAPGLRGGAGPPGPEGGKGAAGPPGPPGAAGTPGLQGMPGERGGLGSPGPKGDKGEPGGPGADGVPGKDGPRGPTGPIGPPGPAGQPGDKGEGGAPGLPGIAGPRGSPGERGETGPPGPAGFPGAPGQNGEPGGKGERGAPGEKGEGGPPGVAGPPGGSGPAGPPGPQGVKGERGSPGGPGAAGFPGARGLPGPPGSNGNPGPPGPSGSPGKDGPPGPAGNTGAPGSPGVSGPKGDAGQPGEKGSPGAQGPPGAPGPLGIAGITGARGLAGPPGMPGPRGSPGPQGVKGESGKPGANGLSGERGPPGPQGLPGLAGTAGEPGRDGNPGSDGLPGRDGSPGGKGDRGENGSPGAPGAPGHPGPPGPVGPAGKSGDRGESGPAGPAGAPGPAGSRGAPGPQGPRGDKGETGERGAAGIKGHRGFPGNPGAPGSPGPAGQQGAIGSPGPAGPRGPVGPSGPPGKDGTSGHPGPIGPPGPRGNRGERGSEGSPGHPGQPGPPGPPGAPGPCCGGVGAAAIAGIGGEKAGGFAPYYG
B1: the “Cell adhesion to collagens (Cell Index, endpoint)” value with C2C12-α10β1 cells [2] is “bound quite well”.

Source of the values: publication PMC5380659, “Unique charge-dependent constraint on collagen recognition by integrin α10β1” (Matrix Biology, 2017).
